Structures can show the parent of a compound that is named as a salt. Where two headings read alike, the source gives them in different places.
What was measured:
[1] = target: calcium- and phospholipid-dependent protein kinase (PKC); assay: Inhibition of the activity of protein kinase C (incorporation of P^32-labelled phosphate into histone H-1); type: biochemical; settings: PKC enriched from rat brain; histone H-1 substrate; 5 min, 30° C.; pH 7.5
Source text: For the clarification of the inhibiting influence of compounds of formula I according to the present invention on the calcium- and phospholipid-dependent protein kinase (PKC), this enzyme activity was enriched from rat brain. Using the purification steps described in the literature (J. Biol. Chem., 260, 15718-15722/1985), in the case of a purification consisting of two steps, there was utilized the property of the enzyme to bind to cell membranes in the presence of calcium and to be dissolved off again by calcium chelators (EGTA). In the first enrichment step, there took place the binding of the PKC to membranes of the rat brain and in the second step on so-called inside-out vesicles or erythrocytes. After dissolving off from the erythrocyte membranes and rebuffering, the PKC preparation was present in 10 mM HEPES, 1 mM DTT, 0.1% PEG 20000, pH 7.5. Under these conditions, it could be stored at -70° C. for several months without loss of activity.
The activity of the enzyme was determined via the incorporation of P^32 -labelled phosphate into the protein histone H-1 (Sigma Type III) which can be phosphorylated by PKC.
The test thereby contains the following components: 50 mM HEPES-NaOH (pH 7.5), 5 mM magnesium chloride, 1 mM DTT, 4 μm. free calcium ions, 10 μMaTP, 1 μg phosphatidylserine, 0.2 μg 1,2-diolein, as well as 40 μg histone H-1 and optionally the test substance.
The batch is preincubated for 4 minutes at 30° C. and the reaction then started by the addition of 5 nM PKC. After incubating for 5 minutes at 30° C., the reaction is stopped with 10% TCA and the samples then filtered off. The phosphate incorporation is determined by Cerenkov counting in a scintillation counter. The kinase activity measured in the absence of the test substance was, in each case, taken as being 100% and the inhibiting action of the compounds of formula I referred thereto as percentages.

[2] = tested on: Noradrenaline-Precontracted Aorta; assay: Endothelium-dependent smooth muscle relaxation of noradrenaline-precontracted rabbit aorta rings in an organ bath; settings: Oryctolagus cuniculus, noradrenaline 3 × 10^-7 mol/L
Method: Rabbit aorta rings are fixed in an organ bath filled with physiological salt solution (Krebs-Henseleit) between L-shaped wires. The solution is gassed with carbogen. Contractions are initiated by 3×10^-7 noradrenaline. When the tension has reached a stable plateau, compounds of the instant invention are added. The effect of the compounds first is tested on organ preparation with functioning endothelium. In an additional experiment in order to test whether the relaxation is endothelium-dependent the compounds are tested with aorta rings with damaged endothelium. For an endothelium-dependent relaxation, effected by the endothelium-derived relaxating factor (EDRF), the following characteristics are required: absence of the effect in preparations with damaged endothelium, no inhibition of the relaxation by indomethazine and inhibition of the relaxation by NDGA (nordihydro-guaiaretic acid), methylene blue and gossypol. These criteria are completely met by the compounds listed in Table II, and one can conclude, that the compounds of the instant invention act in an unexpected manner by the release of EDRF, and thereby relax vascular smooth muscle.

With `CCCCCCCCCCCCCCCCCCOc1cn(Cc2ccccc2)c(CN2CCC(CN)(c3ccccc3)CC2)cc1=O` [Example 101, 1-[(1-Benzyl-5-octadecyloxy-4(1H)-pyridon-2-yl)methyl]-4-aminomethyl-4-phenylpiperidine trihydrochloride] the IC50 [1] was 1.5 µM, the EC50 ([2]; damaged endothelium, read-out: Relaxation of Noradrenaline-Precontracted Aorta, EC50, Damaged Endothelium) was greater than 100 µM and the EC50 ([2]; functioning endothelium, read-out: Relaxation of Noradrenaline-Precontracted Aorta, EC50, Functioning Endothelium) was 20 µM.

— patent publication US5185352A, “Alkoxy-4(1H)-pyridone derivatives, processes for the preparation thereof and pharmaceutical compositions containing them” (Goedecke Aktiengesellschaft, priority 1988, dated 1993)
